Source: publication PMC11696576, “Next generation thiazolyl ketone inhibitors of cytosolic phospholipase A2 α for targeted cancer therapy” (Nature Communications, 2025)
Several values for one entry are separate records, joined by “and”; a condition that tells them apart may be missing. Identical values can stand only once. Like-named read-outs stand apart in the source and are kept apart here.

Test system: panel of 66 cancer cell lines
Experiment: cancer cell line screen, proliferation assay (ATPlite, 72 h)
Format: cell-based, human
Settings: for IC50: Homo sapiens; for raw signal, dose-response (Figure S7a): rep1, rep2, listed as AVX235
From the text: Targeting specific molecular vulnerabilities in cancer is considered a key approach to reducing the adverse effects of chemotherapy. However, the events that govern the susceptibility to suppression of the cPLA2α in cancer remain largely unexplored. We therefore took the approach of screening the antiproliferative activity of AVX420 in a panel of 66 cancer cell lines (hereafter referred to as the cancer cell line screen or CCLS) to allow us to investigate molecular and genetic vulnerabilities to the drug.
Screening of compound activities in 66 cancer cell lines was carried out at the Netherlands Translation Research Center. Briefly, proliferation assays were performed 72 h after compound addition using ATPlite 1step reagent (Perkin Elmer). IC50s calculated by non-linear regression analysis were used as a measure of compound activity for investigating associations with genetic factors. A complete description of the laboratory and data analysis methods are available in the Supplementary Information file (Supplemental Methods: Cancer Cell Line Screening).
Cancer cell line screening
Cell proliferation assays
All cell lines were from the American Type Culture Collection (ATCC) Manassas, Virginia (US) and maintained under ATCC-recommended protocols and within 9 pas- […]
DMSO at -80°C until one hour before use. Cells exposed within one hour after thaw-ing of the compound stocks. Final compound concentration range in the assay was 10 […]
cated by supplier. Compounds were dissolved in 100 % DMSO and stored at room temperature. Final concentration of the reference compounds in the assay was 3.16x10-5 M to 3.16x10-9 M. The final DMSO concentration during incubation was […]
Cell lines were plated in Advanced RPMI 1640 (Gibco, ref 12633-012) cell culture medium, containing 1% Glutamax solution (Gibco, ref 35050-038), 0.4% Pen Strep solution (Gibco, ref 15140-122) and bovine serum. The cPLA2α inhibitors were tested in 0.5% bovine serum (HyClone, ref SH30072.03) with the exception of769-P, A-204, BT-549, SR, T98G, which were tested in the presence of 1.0% serum and A-704 and LNCaP FGS, which were tested in the in the presence of 10% serum. Reference com-pounds were all tested in the presence of 10% bovine serum.
Cells were dispensed in a 384-well plate, at a concentration of 200 - 3200 cells per well, depending on the cell line, in 45 μL medium. Plated cells were incubated in a humidified atmosphere of 5% CO2 at 37 °C. After 24 hours, 5 μL of compound dilu-tion was added and plates were further incubated for another 72 hours. After 72 hours, 25 μL of ATPlite 1Step™ (PerkinElmer) solution was added to each well, and subse-quently shaken for 2 minutes. After 10 minutes of incubation in the dark, the lumines-cence was recorded on an Envision multimode reader (PerkinElmer).
Cell growth control. The cellular doubling times of all cell lines are calculated from the t = 0 hours and t = 72 hours growth signals of the untreated cells. If the doubling time is out of specification (0.5 – 2.0 times deviating from historic average) the assay […]
IC50s were calculated by non-linear regression using IDBS XLfit 5. The percentage growth after 72h (%-growth) was calculated as follows: 100% x (luminescence t = 72h / luminescence untreated,t=72h). This was fitted to the 10log compound concentration (conc) by a 4-parameter logistics curve: %-growth = bottom + (top – bottom) / (1+ 10(logIC50 – conc)*hill)), where hill is the Hill-coefficient, and bottom and top the asymptotic mini-mum and maximum cell growth that the compound allows in that assay.
All analysis were performed in the statistical software package R and visualized using GraphPad Prism version 10.0 .0

CCCCCCCCc1ccc(OCC(=O)c2nc(C(=O)OC)cs2)cc1 [GK470]
IC50 (SK-N-AS, SKNAS, peripheral_nervous_system, read-out: pIC50 (converted)): 19.1 µM
IC50 (SK-N-AS, read-out: IC50): 19 µM
IC50 (SK-N-FI, read-out: IC50): 17.5 µM
IC50 (SNU-C2B, read-out: IC50): 14.7 µM
IC50 (SR, read-out: IC50): 13.8 µM
IC50 (SUP-T1, SUP-T1, read-out: IC50): 12.5 µM
IC50 (SW48, SW48, large_intestine, read-out: pIC50 (converted)): 20 µM
IC50 (SW48, SW48, read-out: IC50): 19.9 µM
IC50 (SW480, SW480, read-out: IC50): 13.5 µM
IC50 (SW948, SW948, read-out: IC50): 17.4 µM
IC50 (SW-620, SW620, read-out: IC50): 18.1 µM
IC50 (T98G, read-out: IC50): 28.4 µM
IC50 (T-24, T24, read-out: IC50): 12.3 µM
IC50 (TT, read-out: IC50): 21.8 µM
IC50 (U2OS, U-2 OS, read-out: IC50): 17.7 µM
IC50 (U-87 MG, U87MG, central_nervous_system, read-out: pIC50 (converted)): 17 µM
IC50 (U-87 MG, read-out: IC50): 17 µM
IC50 (VA-ES-BJ, read-out: IC50): 19.6 µM
pIC50 (Hs578T, breast): 4,862
pIC50 (J82, urinary_tract): 4,801
raw signal, dose-response (Figure S7a) (Jurkat E6.1, Log10 M -4): 1240 and 667
raw signal, dose-response (Figure S7a) (Jurkat E6.1, Log10 M -4.5): 69347 and 62800
raw signal, dose-response (Figure S7a) (Jurkat E6.1, Log10 M -5): 1516720 and 2014840
raw signal, dose-response (Figure S7a) (Jurkat E6.1, Log10 M -5.5): 2624707 and 2368947
raw signal, dose-response (Figure S7a) (Jurkat E6.1, Log10 M -6): 2496507 and 2717280
raw signal, dose-response (Figure S7a) (Jurkat E6.1, Log10 M -6.5): 2786800 and 2504560
raw signal, dose-response (Figure S7a) (Jurkat E6.1, Log10 M -7): 2315800 and 2537613
raw signal, dose-response (Figure S7a) (Jurkat E6.1, Log10 M -7.5): 2302120 and 2459400
raw signal, dose-response (Figure S7a) (Jurkat E6.1, Log10 M -8): 2509133 and 2328987
pIC50 (Jurkat, blood): 4,903
pIC50 (K562, blood): 4,964
pIC50 (KU812, blood): 4,982
raw signal, dose-response (Figure S7a) (KU812, Log10 M -4): 2000 and 2307
raw signal, dose-response (Figure S7a) (KU812, Log10 M -5): 1822573 and 2233120
raw signal, dose-response (Figure S7a) (KU812, Log10 M -5.5): 3176813 and 3177440
raw signal, dose-response (Figure S7a) (KU812, Log10 M -6): 3485480 and 3637827
raw signal, dose-response (Figure S7a) (KU812, Log10 M -6.5): 3729800 and 3806653
raw signal, dose-response (Figure S7a) (KU812, Log10 M -7): 3631000 and 3828800
raw signal, dose-response (Figure S7a) (KU812, Log10 M -7.5): 3591800 and 3773040
raw signal, dose-response (Figure S7a) (KU812, Log10 M -8): 3583000 and 3731880
pIC50 (LoVo, large_intestine): 4,715
pIC50 (MCF7, breast): 4,897
pIC50 (MIAPaCa2, pancreas): 4,962
raw signal, dose-response (Figure S7a) (MOLT-4, Log10 M -4): 6747 and 7320
raw signal, dose-response (Figure S7a) (MOLT-4, Log10 M -4.5): 20107 and 20253
raw signal, dose-response (Figure S7a) (MOLT-4, Log10 M -5): 5205800 and 4645067
raw signal, dose-response (Figure S7a) (MOLT-4, Log10 M -5.5): 6414373 and 7056240
raw signal, dose-response (Figure S7a) (MOLT-4, Log10 M -6): 6351120 and 6709307
raw signal, dose-response (Figure S7a) (MOLT-4, Log10 M -6.5): 7338240 and 7172960
raw signal, dose-response (Figure S7a) (MOLT-4, Log10 M -7): 6855453 and 6993467
raw signal, dose-response (Figure S7a) (MOLT-4, Log10 M -7.5): 7127253 and 7052227
raw signal, dose-response (Figure S7a) (MOLT-4, Log10 M -8): 6961773 and 6888133
pIC50 (MeWo, skin): 4,763
pIC50 (NCIH82, lung): 4,863
pIC50 (NCIH460, lung): 4,648
pIC50 (PA1, ovary): 4,937
pIC50 (RPMI7951, skin): 4,789
pIC50 (RT4, urinary_tract): 4,784
pIC50 (SHP77, lung): 4,925
pIC50 (SKNFI, peripheral_nervous_system): 4,757
raw signal, dose-response (Figure S7a) (SR, Log10 M -4): 14067 and 13787
raw signal, dose-response (Figure S7a) (SR, Log10 M -4.5): 35000 and 26573
raw signal, dose-response (Figure S7a) (SR, Log10 M -5): 2706093 and 3120400
raw signal, dose-response (Figure S7a) (SR, Log10 M -5.5): 3256320 and 3580587
raw signal, dose-response (Figure S7a) (SR, Log10 M -6): 3226453 and 3322280
raw signal, dose-response (Figure S7a) (SR, Log10 M -6.5): 3558600 and 3526027
raw signal, dose-response (Figure S7a) (SR, Log10 M -7): 2883787 and 3035533
raw signal, dose-response (Figure S7a) (SR, Log10 M -7.5): 3423760 and 3325493
raw signal, dose-response (Figure S7a) (SR, Log10 M -8): 3355853 and 3535333
raw signal, dose-response (Figure S7a) (SUP-T1, Log10 M -4): 23760 and 47307
raw signal, dose-response (Figure S7a) (SUP-T1, Log10 M -4.5): 44040 and 66933
raw signal, dose-response (Figure S7a) (SUP-T1, Log10 M -5): 5647093 and 4986840
raw signal, dose-response (Figure S7a) (SUP-T1, Log10 M -5.5): 6851973 and 7008107
raw signal, dose-response (Figure S7a) (SUP-T1, Log10 M -6): 6610693 and 7288227
raw signal, dose-response (Figure S7a) (SUP-T1, Log10 M -6.5): 6531960 and 6798507
raw signal, dose-response (Figure S7a) (SUP-T1, Log10 M -7): 6485200 and 6760880
raw signal, dose-response (Figure S7a) (SUP-T1, Log10 M -7.5): 6096293 and 6838453
raw signal, dose-response (Figure S7a) (SUP-T1, Log10 M -8): 6918733 and 6611987
pIC50 (SUPT1, blood): 4,905
pIC50 (SW480, large_intestine): 4,869
pIC50 (SW620, large_intestine): 4,743
pIC50 (SW948, large_intestine): 4,759
pIC50 (T24, urinary_tract): 4,911
pIC50 (T98G, central_nervous_system): 4,546
pIC50 (TT, thyroid): 4,661
pIC50 (U2OS, bone): 4,752
pIC50 (VAESBJ, soft_tissue): 4,707
